In general, EC50 refers to the concentration at which the effect is half-maximal.

One test deals with THP1 cells. The test is described as follows: IFN-β secretion in THP1 cell culture (5 h). The settings on record: 30 μM compound, relative to 2′3′-cGAMP at 30 μM; for activation at 30 µM: Homo sapiens, THP-1, 5 h, read-out: % Effect at 30 μM relative to 2′3′-cGAMP. In kind it is cell-based, human. The protocol:
The ability of compounds to stimulate the secretion of interferon-beta from THP1 cells was measured using a human IFN-β AlphaLISA kit (Perkin Elmer, Cat. No. AL265F). The basic protocol is as follows:
A Labcyte Echo 550 acoustic dispenser was used to transfer 120 nL of compound dissolved in DMSO into the wells of an empty, sterile 384-well microplate, (Corning, Cat. No. 3712). THP1 cells (American Type Culture Collection, Cat. No. TIB202) previously frozen in Recovery Medium (Life Technologies, Cat. No. 12648-010) were thawed and immediately diluted 10-fold into 37° C. assay medium (RPMI 1640+L-Glutamine & phenol red, Life Technologies, Cat. No. 11875-085; 0.5% heat inactivated fetal bovine serum, Sigma Aldrich, Cat. No. F4135; 1 mM Sodium Pyruvate, Life Technologies, Cat. No. 11360-070; lx non-essential amino acids; Life Technologies, Cat. No. 11140-050). The cell viability and count was ascertained using a Beckman Coulter V-Cell XR cell counter. The cell suspension was centrifuged at 200×g for 5 min at RT. Cells were resuspended to a density of 0.8×10^6/mL in 37° C. assay medium. Subsequent liquid transfers were performed using either a Matrix electronic multichannel pipette or an Agilent Bravo Automated Liquid Handling Platform.
The assay was started by dispensing 40 μL of the previously prepared cell suspension into the wells of the plate containing compounds. After 5 h incubation at 37° C., 5% CO2 in a humidified atmosphere, the plate of cells and compounds was centrifuged at 200×g for 5 min at RT. From each well, 5 μL of supernatant was transferred into corresponding wells of a white 384-well plate (Perkin Elmer, Cat. No. 6005620). To these supernatant-containing wells was added 10 μL of 5× Anti-Analyte Acceptor beads (50 μg/mL of AlphaLISA HiBlock Buffer) and incubated for 30 min at RT while shaking on an orbital plate shaker. To each well was added 10 μL of 5× Biotinylated Antibody Anti-analyte (5 nM in AlphaLISA HiBlock Buffer) and incubated on an orbital plate shaker for 60 min at RT or overnight at 4° C. To each well was added 25 μL of 2×SA-Donor beads (80 μg/mL in AlphaLISA HiBlock Buffer) and incubated for 30-45 min at RT in the dark while shaking on an orbital plate shaker. The plate was then read on a Perkin Elmer Envision (λex=680 nm, λem=570 nm). The percent effect of the AlphaLISA signal at each compound concentration was calculated based on 30 uM cGAMP positive controls and 0.3% DMSO negative controls. The plot of percent effect versus the log of compound concentration was fit with a 4-parameter concentration response equation to calculate EC50 values. The test compounds were tested at concentrations 30000, 10000, 3333, 1111, 370.4, 123.4, 41.2, 13.7, 4.6, and 1.5 nM with 0.3% residual DMSO. The control compound, cGAMP was tested at concentrations 100000, 33333, 11111, 3704, 1235, 412, 137, 46, and 15 nM with 0.3% residual DMSO.
Compounds of the disclosure were evaluated for IFN-β secretion in THP1 cell culture as described above. The following table tabulates the biological data for these compounds as percent activation relative to 2′3′-cGAMP at the 30 μM concentration.

A further test has as its target full-length WT STING (Homo sapiens (Human), UniProt Q86WV6, H232R). The test is described as follows: 3H-cGAMP filtration binding assay (WT STING). The settings on record: WT STING membrane. The protocol:
The ability of compounds to bind STING is quantified by their ability to compete with tritiated cGAMP ligand for human STING receptor membrane using a radioactive filter-binding assay. The binding assay employs STING receptor obtained from Trichoplusia ni cell membranes (T.ni; Expression Systems, cat #94-002F, overexpressing full-length WT STING and tritiated cGAMP ligand.
The basic WT STING filtration assay protocol is as follows:
16 nM of [^3H] c-GAMP ligand was prepared by diluting into assay buffer, and 50 uL of this working stock was manually added to each well of the assay plate. After ligand addition, 2 uL of either titrated test compound, DMSO control (Sigma #276855), or cold cGAMP control was added to the appropriate wells using a BIOMEK FX. The serially titrated compound was prepared on a Hamilton STARPlus CORE in a 96-well plate (Greiner, #651201) using a 1:3 ten-point dose response format. Following compound addition, a 2.2 ug/ml working concentration of STING membrane (SEQ. ID. No. 3) was prepared by diluting concentrated membrane into assay buffer (1×PBS; Invitrogen #SH30028.02) and douncing 7× using a manual tissue homogenizer (Wheaton, #357546). 148 uL of this prepared membrane was then manually added to each well of a 96-well deep-well polypropylene plate (Fisher Scientific, #12-566-121). Compound, ligand, and membrane then incubated for 60 min at RT before the contents of each assay plate were filtered through a 96-well GF/B filter plate (PerkinElmer, #6005250) using a TOMTEC MACH III Cell Harvester equipped with 20 mM HEPES buffer (Fisher Scientific, #BP299500). The filter plates were then dried at 55° C. for 30 min using a pressurized VWR oven before 30 uL of ULTIMA GOLD F scintillate was added to each well. Tritium levels for each reaction well were then measured using a PerkinElmer TopCount plate reader.
After normalization to controls, the percent activity for each compound concentration was calculated by measuring the amount of remaining radioactivity. The plot of percent activity versus the log of compound concentration was fit with a 4-parameter dose response equation to calculate EC50 values.

The mark [1] stands for this setting: competition with tritiated cGAMP ligand, read-out: EC50.
The mark [2] stands for this setting: EC50, competition with tritiated cGAMP ligand.

Molecules are shown by their SMILES. Like-named read-outs stand apart in the source and are kept apart here. A value given as a limit tells only on which side of the number the result lay.

Chain of full-length WT STING (Q86WV6 whole entry, looked up, stated change not applied): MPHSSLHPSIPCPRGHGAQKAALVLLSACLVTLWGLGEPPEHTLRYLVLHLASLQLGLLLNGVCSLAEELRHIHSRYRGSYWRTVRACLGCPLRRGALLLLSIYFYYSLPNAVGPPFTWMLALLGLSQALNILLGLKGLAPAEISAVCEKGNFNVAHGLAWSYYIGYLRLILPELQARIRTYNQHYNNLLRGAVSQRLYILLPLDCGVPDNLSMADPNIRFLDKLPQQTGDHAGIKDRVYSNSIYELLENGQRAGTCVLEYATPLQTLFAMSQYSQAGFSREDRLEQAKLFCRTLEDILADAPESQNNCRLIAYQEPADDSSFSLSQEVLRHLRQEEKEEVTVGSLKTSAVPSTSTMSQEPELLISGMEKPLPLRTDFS

Turning to `Nc1nc2c(ncn2[C@@H]2O[C@@H]3COP(=S)(S)O[C@H]4C[C@H](n5cnc6c(N)ncnc65)O[C@@H]4COP(O)(=S)O[C@@H]2C3)c(=O)[nH]1` (single isomer, unassigned) [Example 4], the “% Effect at 30 μM relative to 2′3′-cGAMP” value with THP1 cells is listed as 146%. Also, the concentration giving a half-maximal response (EC50) at full-length WT STING (setting [1]) was under 1 nM.
As to `Nc1nc2c(ncn2[C@@H]2O[C@@H]3COP(O)(=S)O[C@H]4C[C@H](n5cnc6c(N)ncnc65)O[C@@H]4COP(=S)(S)O[C@@H]2C3)c(=O)[nH]1` (single isomer, unassigned) [Example 10], the “% Effect at 30 μM relative to 2′3′-cGAMP” value in the test on THP1 cells is reported as 91%. The compound further had a concentration for a half-maximal effect (EC50) on full-length WT STING (setting [2]) of 6 nM.
For `Nc1nc2c(ncn2[C@@H]2O[C@@H]3COP(O)(=S)O[C@H]4C[C@H](n5cnc6c(N)ncnc65)O[C@@H]4COP(=S)(S)O[C@@H]2C3)c(=O)[nH]1` (single isomer, unassigned) [Example 11], the “% Effect at 30 μM relative to 2′3′-cGAMP” value in the test on THP1 cells came to 51%. On full-length WT STING (setting [2]), this compound registered an EC50 of 34 nM.
`Nc1nc2c(ncn2[C@@H]2O[C@@H]3COP(O)(=S)O[C@H]4[C@H](F)[C@H](n5cnc6c(N)ncnc65)O[C@@H]4COP(=S)(S)O[C@@H]2[C@@H]3F)c(=O)[nH]1` (single isomer, unassigned) [Example 12]: the “% Effect at 30 μM relative to 2′3′-cGAMP” value with THP1 cells is recorded as 116%. Besides, the EC50 at full-length WT STING (setting [1]) came out at 171 nM.
On to `Nc1nc2c(ncn2[C@@H]2O[C@@H]3COP(O)(=S)O[C@H]4[C@H](F)[C@H](n5cnc6c(N)ncnc65)O[C@@H]4COP(=S)(S)O[C@@H]2[C@@H]3F)c(=O)[nH]1` (single isomer, unassigned) [Example 13], for which the “% Effect at 30 μM relative to 2′3′-cGAMP” value with THP1 cells is given as 95%. The 50% effective concentration (EC50) at full-length WT STING (setting [1]) was found to be 223 nM.
For `Nc1nc2c(ncn2[C@@H]2O[C@@H]3COP(O)(=S)O[C@H]4C[C@H](n5ccc6c(N)ncnc65)O[C@@H]4COP(=S)(S)O[C@@H]2C3)c(=O)[nH]1` (single isomer, unassigned) [Example 14], the activation at 30 µM in the test with THP1 cells was determined as 422%. Further, the EC50 at full-length WT STING (setting [1]) is 244 nM.
Take `Nc1nc2c(ncn2[C@@H]2O[C@@H]3COP(O)(=S)O[C@H]4[C@H]5OC[C@]4(COP(=S)(S)O[C@@H]2[C@H]3F)O[C@H]5n2cnc3c(N)ncnc32)c(=O)[nH]1` (single isomer, unassigned) [Example 15]: in the test with THP1 cells, the activation at 30 µM is 357%. Moreover, the EC50 on full-length WT STING (setting [1]) is 79 nM.
`Nc1nc2c(ncn2[C@@H]2O[C@@H]3COP(=S)(S)O[C@H]4C[C@H](n5cnc6c(=O)[nH]cnc65)O[C@@H]4COP(O)(=S)O[C@@H]2C3)c(=O)[nH]1` (single isomer, unassigned) [Example 24]: the “% Effect at 30 μM relative to 2′3′-cGAMP” value in the test with THP1 cells is reported as 168%. On full-length WT STING (setting [1]), the EC50 was 19 nM.
In the case of `Nc1nc2c(ncn2[C@@H]2O[C@@H]3COP(=S)(S)O[C@H]4C[C@H](n5cnc6c(=O)[nH]cnc65)O[C@@H]4COP(O)(=S)O[C@@H]2C3)c(=O)[nH]1` (single isomer, unassigned) [Example 25], the “% Effect at 30 μM relative to 2′3′-cGAMP” value in the test on THP1 cells was determined as 281%. The concentration giving a half-maximal response (EC50) on full-length WT STING (setting [1]) came out at 2 nM.
On to `Nc1nc2c(ncn2[C@@H]2O[C@@H]3COP(=S)(S)O[C@H]4C[C@H](n5cnc6c(N)ncnc65)O[C@@H]4COP(=O)(O)O[C@@H]2C3)c(=O)[nH]1` (stereo partly drawn) [Example 18, 2-amino-9-[(5S,7R,8R,12aR,14R,15aS)-14-(6-amino-9H-purin-9-yl)-10-hydroxy-10-oxido-2-sulfanyl-2-sulfidooctahydro-12H-5,8-methanofuro[3,2-1][1,3,6,9,11,2,10]pentaoxadiphosphacyclotetradecin-7-yl]-1,9-dihydro-6H-purin-6-one], for which, in the test with THP1 cells, the activation at 30 µM amounted to 153%. Moreover, the concentration giving a half-maximal response (EC50) on full-length WT STING (setting [1]) came out at 1 nM.
`Nc1nc2c(ncn2[C@@H]2O[C@@H]3COP(=S)(S)O[C@H]4[C@H](F)[C@H](n5cnc6c(N)ncnc65)O[C@@H]4COP(=O)(O)O[C@@H]2[C@@H]3F)c(=O)[nH]1` (stereo partly drawn) [Example 19, 2-amino-9-[(5R,7R,8S,12aR,14R,15S, 15aR,16R)-14-(6-amino-9H-purin-9-yl)-15,16-difluoro-10-hydroxy-10-oxido-2-sulfanyl-2-sulfidooctahydro-12H-5,8-methanofuro[3,2-1][1,3,6,9,11,2,10]pentaoxadiphosphacyclotetradecin-7-yl]-1,9-dihydro-6H-purin-6-one]: in the test with THP1 cells, the activation at 30 µM amounted to 250%. Moreover, the EC50 on full-length WT STING (setting [1]) was determined as 1 nM.
Consider `Nc1nc2c(ncn2[C@@H]2O[C@@H]3COP(=O)(O)O[C@H]4[C@H](F)[C@H](n5cnc6c(N)ncnc65)O[C@@H]4COP(=S)(S)O[C@@H]2[C@@H]3F)c(=O)[nH]1` (stereo partly drawn) [Example 22, 2-amino-9-[(5R,7R,8S,12aR,14R,15S,15aR,16R)-14-(6-amino-9H-purin-9-yl)-15,16-difluoro-2-hydroxy-2-oxido-10-sulfanyl-10-sulfidooctahydro-12H-5,8-methanofuro[3,2-l][1,3,6,9,11,2,10]pentaoxadiphosphacyclotetradecin-7-yl]-1,9-dihydro-6H-purin-6-one], for which, in the test with THP1 cells, the activation at 30 µM was found to be 117%. The compound further came in with an EC50 on full-length WT STING (setting [2]) of 517 nM.
Take `Nc1nc2c(ncn2[C@@H]2O[C@@H]3COP(=O)(O)O[C@H]4C[C@H](n5cnc6c(N)ncnc65)O[C@@H]4COP(=S)(S)O[C@@H]2C3)c(=O)[nH]1` (stereo partly drawn) [Example 23, 2-amino-9-[(5S,7R,8R,12aR,14R,15aS)-14-(6-amino-9H-purin-9-yl)-2-hydroxy-2-oxido-10-sulfanyl-10-sulfidooctahydro-12H-5,8-methanofuro[3,2-1] [1,3,6,9,11,2,10]pentaoxadiphosphacyclotetradecin-7-yl]-1,9-dihydro-6H-purin-6-one]: in the test on THP1 cells, the activation at 30 µM turned out to be 152%. In addition, the half-maximal effective concentration (EC50) at full-length WT STING (setting [1]) is 69 nM.
For `Nc1nc2c(ncn2[C@@H]2O[C@@H]3COP(=S)(S)O[C@H]4[C@H](F)[C@H](n5cnc6c(=O)[nH]cnc65)O[C@@H]4COP(O)(=S)O[C@@H]2[C@@H]3F)c(=O)[nH]1` (stereo partly drawn) [Example 27, 2-amino-9-[(5R,7R,8S,12aR,14R,15S,15aR,16R)-15,16-difluoro-10-hydroxy-14-(6-oxo-1,6-dihydro-9H-purin-9-yl)-2-sulfanyl-2,10-disulfidooctahydro-12H-5,8-methanofuro[3,2-1][1,3,6,9,11,2,10]pentaoxadiphosphacyclotetradecin-7-yl]-1,9-dihydro-6H-purin-6-one], the activation at 30 µM with THP1 cells came to 164%.

Source of the values: patent US11466047B2, “Cyclic di-nucleotide compounds as sting agonists” (Merck Sharp & Dohme Corp., priority 2017, dated 2022).
